Tests used:
[1] = test system: mTORC1 signaling in TRI102 cells; experiment: mTORC1 signaling Western blot in TRI102 cells; type: cell-based, human; settings: replete and serum-starved conditions, 90 min, dose-dependent
Method: MCF-7 cells were serum-starved for 16 h and treated with compound for 90 min before cell lysis and Western blot analysis. For insulin-stimulated cells, 100 nM insulin was added 30 min before cell lysis. For EGF-stimulated cells, 100 ng mL^−1 EGF was added 10 min before cell lysis. c Rap1 activity was detected in lysates loaded in vitro with either GDP or GTPγS and treated with NR1 at the indicated concentrations. This was followed by a subsequent pulldown of GST-RalGDS-RBD. Bound Rap1 was detected by Western blot. d Evaluation of NR1 in a LAM patient-derived cell line (TRI102) under replete and serum-starved conditions. For replete conditions, TRI102 cells were treated for 90 min with compound in DMEM + 10% FBS. For serum-starved conditions, TRI102 cells were serum-starved 16 h and then treated for 90 min with compound prior to cell lysis and Western blot analysis. e HEK293 cells co-transfected with the indicated mTOR constructs and HA-GST-S6K1 were starved of amino acids or treated with NR1. To assess mTORC1 activity, an HA IP was performed and Western blots probed for ^T389pS6K1. f Chronic treatment of PC3 cells with NR1 to evaluate the inhibition of mTORC1 (using ^T389pS6K1) versus mTORC2 (using ^S473pAKT). PC3 cells were treated with compound under replete conditions for 24 h prior to cell lysis and Western blot analysis. […]

[2] = test system: S473pAKT (mTORC2) in PC3 cells; experiment: Chronic treatment of PC3 cells, S473pAKT Western blot; type: cell-based, human
Method: MCF-7 cells were serum-starved for 16 h and treated with compound for 90 min before cell lysis and Western blot analysis. For insulin-stimulated cells, 100 nM insulin was added 30 min before cell lysis. For EGF-stimulated cells, 100 ng mL^−1 EGF was added 10 min before cell lysis. c Rap1 activity was detected in lysates loaded in vitro with either GDP or GTPγS and treated with NR1 at the indicated concentrations. This was followed by a subsequent pulldown of GST-RalGDS-RBD. Bound Rap1 was detected by Western blot. d Evaluation of NR1 in a LAM patient-derived cell line (TRI102) under replete and serum-starved conditions. For replete conditions, TRI102 cells were treated for 90 min with compound in DMEM + 10% FBS. For serum-starved conditions, TRI102 cells were serum-starved 16 h and then treated for 90 min with compound prior to cell lysis and Western blot analysis. e HEK293 cells co-transfected with the indicated mTOR constructs and HA-GST-S6K1 were starved of amino acids or treated with NR1. To assess mTORC1 activity, an HA IP was performed and Western blots probed for ^T389pS6K1. f Chronic treatment of PC3 cells with NR1 to evaluate the inhibition of mTORC1 (using ^T389pS6K1) versus mTORC2 (using ^S473pAKT). PC3 cells were treated with compound under replete conditions for 24 h prior to cell lysis and Western blot analysis.
Accordingly, a hallmark of a selective mTORC1 inhibitor such as NR1 would be the lack of mTORC2 inhibition irrespective of the duration of treatment. PC3 cells are sensitive to mTORC2 inhibition with long-term rapamycin treatment. Indeed, upon treatment with rapamycin for 24 h, both ^T389pS6K1 and ^S473pAKT were lowered, indicating inhibitory effects on both mTORC1 and mTORC2, respectively.
For Western-based signaling assays, cells were treated for either 90 min or 2–24 h as indicated before lysis, normalization, and Western analysis. Cells were lysed in Triton lysis buffer: 1% Triton X-100, 50 mM HEPES pH 7.4, 100 mM NaCl, 2 mM EDTA, 10 mM β-glycerophosphate, 10 mM Na-pyrophosphate, protease inhibitor.

[3] = target: T1, Rheb-dependent mTORC1 kinase activity (Homo sapiens, UniProt Q15382); experiment: Rheb-dependent mTORC1 in vitro kinase assay (Rheb-IVK); type: biochemical
T1 construct: using full-length Rheb and mTORC1 purified from mammalian cells via a Flag-Raptor handle; made in house; host or cells: HA-GST-Rheb: Freestyle 293-F cells transfected with pRK5-HA-GST-Rheb; mTORC1: HEK-293E cells stably expressing FLAG-Raptor

[4] = target: T2, human Rheb protein (1–169) (Homo sapiens, UniProt Q15382); experiment: Isothermal calorimetry (ITC) of binding to Rheb
T2 construct: human Rheb protein (1–169) was purified from BL21 (DE3) Escherichia coli; His-Smt (His-SUMO) (N, cleaved yes); made in house; host or cells: BL21 (DE3) Escherichia coli
Method: For the STD-NMR fragment-based screen, HMQC-NMR, ITC, and crystallography, human Rheb protein (1–169) was purified from BL21 (DE3) Escherichia coli using a His-Smt-Rheb expression vector. The cell paste was lysed in lysis buffer (50 mM HEPES pH 7.5, 0.5 M NaCl, 5% Glycerol, 1% CHAPS, EDTA-free protease inhibitor tablets, lysozyme to 1 mg mL^−1, benzonase 250 U), sonicated, and purified on a HiTrap Ni Chelating Column (GE Healthcare) using the following buffer: 50 mM HEPES pH 7.5, 0.5 M NaCl, 5% Glycerol, and imidazole increasing in concentration from 5 mM to 500 mM. The His-Smt tag was cleaved using a Ulp1 enzyme and dialyzed into 50 mM HEPES pH 7.5, 0.5 M NaCl, 5% glycerol. The resultant protein was again purified on a Ni Chelating column to remove the Ulp1 enzyme and His-Smt tag and then purified by size exclusion chromatography on a Sephacryl S-100 26/60 column into the following final buffer: 20 mM NaPhos pH 7.0, 100 mM NaCl, 5 mM MgCl2, 2 mM TCEP. For HMQC NMR, ^15N-labeled Rheb was generated using the same protocol but grown in minimal medium supplemented with ^15N-labeled amino acids.
Supplementary Figure 8. Measurement of binding constant of NR1 with Rheb using isothermal
(1 picture or pasted object on this page, not shown here)

T2 sequence (Q15382 1-169): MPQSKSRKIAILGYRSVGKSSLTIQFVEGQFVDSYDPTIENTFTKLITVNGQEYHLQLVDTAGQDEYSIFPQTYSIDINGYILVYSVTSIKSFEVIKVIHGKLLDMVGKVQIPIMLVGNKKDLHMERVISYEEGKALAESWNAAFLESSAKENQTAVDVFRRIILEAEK
T1 sequence (Q15382 1-181 limits assumed): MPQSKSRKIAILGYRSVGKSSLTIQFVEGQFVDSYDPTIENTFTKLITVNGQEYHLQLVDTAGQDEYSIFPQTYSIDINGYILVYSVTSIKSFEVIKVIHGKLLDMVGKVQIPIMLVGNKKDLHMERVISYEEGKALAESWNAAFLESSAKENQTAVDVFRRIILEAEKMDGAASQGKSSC

## CN(C)C(=O)c1ccc(Cn2c(C(=O)O)cc3c(Br)cc(Sc4ccc(Cl)c(Cl)c4)cc32)cc1 [NR1, 4-bromo-6-(3,4-dichlorophenylthio)-1-(4-(dimethylcarbamoyl)benzyl)-1H-indole-2-carboxylic acid]
[1]
  mTORC1 signaling in TRI102 cells: inhibits mTORC1 signaling
[2]; PC3, replete, 24 h, NR1 30 µM, rapamycin 100 nM
  S473pAKT after 24 h treatment: no inhibition
[2]; PC3, time points 2 h through 24 h
  pAkt over time course: activates pAkt
[3]
  IC50: 2.1 µM
[4]
  Kd: 1.5 µM
  ΔH of binding: –0.315 kcal mol^−1

Reference: publication PMC5803267, “A small molecule inhibitor of Rheb selectively targets mTORC1 signaling” (Nature Communications, 2018)
